According to patent publication US20200325505A1, “FILAMENTOUS FUNGI CAPABLE OF PRODUCING VERY LONG CHAIN FATTY ACIDS” (UT-Battelle, LLC, priority 2019, published 2020):
Residues, ends and D or L forms follow the SMILES beside them.

How the values were obtained:
[1] = system: Mortierella elongata AG77; assay: Carbon source utilisation in Biolog 96-well plates, formazan formation after tetrazolium addition; assay type: cell-based; conditions: for Metabolized: Metabolized = more formazan formation than a control containing no carbon source, observed visually at 2 h, 24 h, 148 h; for Carbon sources that Mortierella elongata AG77 can metabolize: summary of Table 3
Procedure, shortened: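 Scoring was by eye at 2, 24 and 148 h after tetrazolium chloride went into wells preincubated 24 h at 21 °C. Wells held lyophilised candidate carbon or nitrogen sources in pH 5.5 mineral medium lacking that nutrient, inoculated with 3 mm PDA-grown mycelial plugs. Formazan above the no-carbon control counted as metabolised and below it as toxic.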

[2] = system: Mortierella elongata AG77; assay: Nitrogen source utilisation in Biolog 96-well plates, formazan formation after tetrazolium addition; assay type: cell-based; conditions: for Metabolized: Metabolized = more formazan formation than a control containing no nitrogen source, observed visually at 2 h, 24 h, 148 h; for Nitrogen sources that Mortierella elongata AG77 can metabolize: text summary of Table 4
Method: Two 300 mL volumes of growth medium comprising 1 g/L KH2PO4, 1 g/L MgSO4 7H2O, 0.1 g/L CaCl2, 0.02 g/L FeNaEDTA, 0.1 g/L NaCl, and either 1 g/L NH4NO3 or 20 g/L sucrose were prepared. […] Aliquots of 200 μL of carbon-free medium or nitrogen-free medium were pipetted into each well of a set of 96-well plates previously prepared with lyophilized putative carbon or nitrogen sources (Biolog Inc., Hayward, Calif.). Inocula were prepared by perforating a culture of Mortierella elongata AG77 grown on 20 g/L potato dextrose agar with a 3 mm diameter cork borer and separating the surface mycelial mat from the solid growth medium using tweezers. Each well was inoculated with one inoculum. Cultures were incubated at 21° C. for 24 hours to allow metabolic changes to stabilize, and then 100 μL of 3 g/L tetrazolium chloride in water was added to each well.
Conclusions were based on rate and intensity of formazan formation using the 3-(4,5-dimethylthiazol-2-yl)-2,5-diphenyltetrazolium bromide ([…]) assay. “Metabolized” indicates more formazan formation than a control containing no nitrogen source, and “Toxic” indicates less formazan formation than a control containing no nitrogen source, “Metabolized” and “Toxic” assignments are mutually exclusive. In this example, a compound may be “Metabolized” or “Toxic,” but not both.

[3] = compound as nitrogen source, Toxic = less formazan formation than a control containing no nitrogen source
[4] = compound as carbon source, Toxic = less formazan formation than a control containing no carbon source

Structure (SMILES) | Toxic [1] | Metabolized ([1]; compound as carbon source) | Toxic [2] | Metabolized ([2]; compound as nitrogen source) | Toxic [2, 3] | Toxic [1, 4] | Carbon sources that Mortierella elongata AG77 can metabolize [1] | Nitrogen sources that Mortierella elongata AG77 can metabolize [2]
NCCCCC(=O)O [δ-Amino Valeric Acid] | no | no | no | no |  |  |  | 
N[C@H](CO)C(=O)O [D-Serine] | no | no | no | no |  |  |  | 
NC(=O)C[C@H](N)C(=O)O [L-Asparagine] | yes | no | no | no |  |  |  | 
C[C@H](N)C(=O)NCC(=O)O [L-Alanyl-Glycine] (H-Ala-Gly-OH) | no | no | no | no |  |  |  | 
CC(N)=O [Acetamide] |  | no |  | no | no |  |  | 
NC(=O)[C@@H](O)[C@@H](O)[C@H](O)[C@@H](O)C=O [Glucuronamide] |  | yes |  | no | no | no | can metabolize | 
N[C@H](CC(=O)O)C(=O)O [D-Aspartic Acid] | no | yes | no | no |  |  | can metabolize | 
O=C(O)[C@@H]1CCCN1 [L-Proline] | no | yes | no | yes |  |  | can metabolize | can metabolize
NCCO [2-Aminoethanol] |  | yes |  | no | no | no | can metabolize | 
N[C@@H](CCO)C(=O)O [L-Homoserine] | no | no | no | yes |  |  |  | can metabolize
NCCc1ccccc1 [Phenylethyl-amine] |  | no |  | no | no | no |  | 
N[C@@H](Cc1ccccc1)C(=O)O [L-Phenylalanine] |  | yes |  | no | no | no | can metabolize | 
NCCCC[C@H](N)C(=O)O [L-Lysine] | no | no | no | no |  |  |  | 
CC(=O)N[C@H]1C(O)O[C@H](CO)[C@H](O)[C@@H]1O (stereo partly drawn) [N-Acetyl-D-Galactosamine] |  | no |  | yes | no | no |  | can metabolize
C[C@H](N)C(=O)O [L-Alanine] | no | no | no | yes |  |  |  | can metabolize
N=C(N)NCCC[C@H](N)C(=O)O [L-Arginine] | no | yes | no | no |  |  | can metabolize | 
